Measured values published in ChEMBL document CHEMBL3507680, “University of Dundee, Gates Library screen for HepG2 cell viability”.

Test: Human HepG2 cell viability assay in 384 well format
Type: toxicity, cell-based
Set-up: dose 125 nL, time 70.5 hour; concentration not given beside the values
Details: HepG2 cells, read-out: Inhibition

Row | SMILES | cytotoxicity at 70.5 h [%]
1 | CCc1nc(CN2CCN(C(=O)c3cncnc3CC)CC2)cs1 | -3.73
2 | COC(=O)N1CCCCC1C(=O)N1CCN(c2ncccc2C)CC1 (stereo unspecified) | -1.8
3 | Cc1ccc(N2CC[C@H]3OCC[C@@]3(C(=O)NCC3CC3)C2)nn1 | -7.61
4 | Cc1ccoc1C(=O)N1CCCC2(CCCN2S(C)(=O)=O)C1 (stereo unspecified) | -3.55
5 | Cc1nc(CN2C(=O)CC[C@H]3[C@@H]2CCN3C(=O)c2ccsc2)cs1 | -11.6
6 | CCc1ccc(CCC(=O)N2CCC(=O)Nc3cccnc32)cc1 | 23.9
7 | c1ccc(OCc2nnc3n2CCN(Cc2ccco2)C3)nc1 | -2.29
8 | Cc1cccc(CNc2cc(C3CCCNC3)ccn2)n1 (stereo unspecified) | -7.94
9 | O=C(NCCNC1CCCC1)c1cccs1 | -6.72
10 | Cc1cnc(N2CC[C@@H]3OC(COCC(=O)N(C)C)CC[C@@H]32)nc1 (stereo partly specified) | -117
11 | O=C(c1cc(C2CC2)on1)N1CCCC(n2cncn2)C1 (stereo unspecified) | 30.6
12 | CCN(CC1CN(Cc2c(C)noc2C)CCO1)c1cccnn1 (stereo unspecified) | 12.5
13 | Cc1cc(CNC(=O)N2CCN(Cc3ccccc3)C[C@H]2C)on1 | 30.7
14 | Cc1ccc(NC(=O)CNc2ccccc2C(N)=O)c(C)c1 | 2.06
15 | COc1cccc(CNCc2ccc(NC(=O)NC(C)C)cc2)c1 | 7.1
16 | CN(C)C(=O)CO[C@@H]1CC[C@H]2[C@H]1OCCN2c1ncc(F)cn1 | -6.35
17 | CC1CCC(O)(Cn2ncnc2-c2cccc(C#N)c2)CC1 (stereo unspecified) | -5.94
18 | CCn1cc(CN2C[C@@H]3CCCN3C[C@@H]2CCSC)cn1 | -2.81
19 | CN1CCc2c(sc3c2C(=O)NC(/C=C/c2ccccc2)N3)C1 (stereo unspecified) | -11.3
20 | CCC(=O)N1CCC2(CC1)COCCN2Cc1ccc(F)cc1 | -10.7
21 | O=C(NCc1cccnc1N1CCCCC1)c1ccc2c(c1)OCO2 | -18.5

Row | SMILES | cytotoxicity at 70.5 h [%]
22 | CCOc1ccnc(N2CCN(C(=O)c3cn[nH]c3C)CC2)n1 | 13.7
23 | O=C1CSC(c2ccc3c(c2)OCO3)c2cn[nH]c2N1 (stereo unspecified) | -4
24 | CCSc1cc(C(=O)NCCNC(=O)N(C)C)ccn1 | -76.6
25 | COc1cc(C2CC(=O)Nc3c2nc2n3CCCC2)cc(OC)c1O (stereo unspecified) | -5.3
26 | CCN(Cc1ccncc1)c1cc(C2CCNCC2)nc(C)n1 | 19.5
27 | NCCn1cc(C(=O)N2CCCCCC2c2cccc(F)c2)nn1 (stereo unspecified) | 13.5
28 | CC(=O)CN1CC2(CCNCC2)COc2ccccc2S1(=O)=O | -12.2
29 | CC(NC(=O)NCCCc1n[nH]c(N)c1C#N)c1cccs1 (stereo unspecified) | 44.5
30 | Cn1cncc1C(=O)N1C[C@@H]2CCN(c3cnccn3)C[C@@H]2C1 | -11.9
31 | Cc1cnn(C2CN(CC(=O)NCC3(c4ccccc4)CCC3)C2)c1 | -2.82
32 | CN(CCc1ccccn1)CCc1nccs1 | -8.22
33 | CC(NC(=O)NCCNc1cccc(F)c1C#N)c1cccs1 (stereo unspecified) | -4.54
34 | CSCC(=O)Nc1cccc(Oc2ccccn2)c1 | 9.83
35 | CN(C)C(=O)CN1C(=O)CCC12CCN(Cc1ccsc1)CC2 | -15.7
36 | CCCc1cc(N2CCC(NCCc3ccc(O)cc3)CC2)nc(C)n1 | -4.92
37 | COCC(=O)NCc1cccnc1-n1cnc2ccccc21 | -0.396
38 | CC(C)C(=O)N1CCC(n2nc(-c3ccco3)ccc2=O)CC1 | 15.9
39 | O=C1C(Sc2nc(=O)ccn2C2CC2)CCN1c1ccccc1F (stereo unspecified) | 2.14
40 | O=C(c1ccccc1)N1CCCN(C(=O)c2ncncc2Cl)CC1 | 15.9
41 | O=C(NCC1CC1)C1CCC2(CCN(C(=O)c3ccoc3)CC2)O1 (stereo unspecified) | -20
42 | CCN1CCC(CNC(=O)c2cc(Cl)c[nH]2)CC1 | -8.09

Row | SMILES | cytotoxicity at 70.5 h [%]
43 | CN(C)c1ncnc2c1CCN(C(=O)CN1CCCCC1)C2 | -7.37
44 | COCC(=O)NC[C@@]1(COc2cccnc2)C[C@@H](O)[C@@H](O)C1 | 3.07
45 | COc1ccc(OC)c(C(O)CN2CCC(N3CCC(C)CC3)CC2)c1 (stereo unspecified) | 2.26
46 | CC(C)c1ncc2c(n1)CN(Cc1nc(-c3ccccn3)no1)CC2 | -6.83
47 | COc1cccc(OCC2CCCN(C(=O)Cc3cccc(O)c3)C2)c1 (stereo unspecified) | -11.3
48 | O=C(c1cccnc1)N1CCc2ncnc(N3CCOCC3)c2CC1 | -7.42
49 | Cn1cccc(NC(=O)NCc2cccc(CO)c2)c1=O | 7.6
50 | Cc1nc(C)n(CC2CCCCN2CC(=O)N(C)Cc2ccco2)n1 (stereo unspecified) | -1.35
51 | CCSCCn1cc(-c2nccs2)nn1 | -9.08
52 | CC(C)CCC(=O)NC(C#N)CC(C)C (stereo unspecified) | 3.54
53 | O=C(CCc1nnc(-c2ccccc2)o1)N1CCCC1c1ccccn1 (stereo unspecified) | 1.97
54 | CC(C)S(=O)(=O)N(C)C(=O)CCc1ccsc1 | -12
55 | Cn1cnnc1C1CCN(C(=O)c2cc(-c3ccccc3)on2)CC1 | 25.4
56 | Cc1nnc(NCC2(c3ccccc3)CCOCC2)c(C#N)c1C | 16.6
57 | CN(C)CCN1CCOC2(CCN(c3nccs3)CC2)c2ccccc21 | 28.7
58 | COc1cc(N2CCC3(CCN(C(=O)c4cccnc4)CC3)C2)ncn1 | -6.37
59 | O=C(c1cscn1)N1CC[C@H]2C[C@H](c3nnc(C4CC4)o3)O[C@@H]2C1 | -10.6
60 | O=C(CCCn1cccn1)N1C[C@@H](O)[C@H](Oc2cccc(F)c2)C1 | 3.04
61 | CCC1CCCCCN1C(=O)c1nnc2ccccc2c1N (stereo unspecified) | -2.66
62 | COCCN(Cc1cnn(C)c1)C(=O)C1CCC(=O)N(C2CCCC2)C1 (stereo unspecified) | -15
63 | O=C([C@H]1CC[C@@H]2[C@@H](CCN2Cc2ccc(F)cc2)O1)N1CCCO1 | -9.2

Row | SMILES | cytotoxicity at 70.5 h [%]
64 | CCOc1cccc(C(=O)N(CCC#N)Cc2ccccn2)c1 | -0.366
65 | O=C(NCc1cnc2n1CCN(Cc1nccs1)CC2)C1CCC1 | -2.78
66 | CC(C)c1nccn1CC1CCCN1Cc1nc2ccccc2n1C (stereo unspecified) | -10.4
67 | CCc1nnc2n1CCN(CC(=O)Nc1cc(C)nn1C)C2 | -4.31
68 | N#Cc1ccc(N2CCCN(CC(=O)N3CCOCC3)CC2)cc1 | 21.1
69 | CN1CCC/C1=N\S(=O)(=O)c1ccc(NC(=O)c2ccsc2)cc1 | -11.8
70 | Cc1ccc(OCC2CCCN(C(=O)Cn3ccccc3=O)C2)cc1 (stereo unspecified) | 25
71 | CCc1nc(C2CCCN2Cc2cnc(C)cn2)no1 (stereo unspecified) | -3.7
72 | CN1CCN(c2cc(CCNC(=O)C3CCC3)nc(C3CC3)n2)CC1 | -6.65
73 | Cn1cc2ncn(CCNc3cccnc3)c(=O)c2n1 | -3.81
74 | CCN1C(=O)[C@]2(CC[C@@H]3CN(C(=O)Nc4ccc(F)cc4)C[C@@H]32)N=C1C | -77.4
75 | COc1ccc(C)cc1C1(CNc2cn[nH]c(=O)c2Cl)CCOCC1 | -5.9
76 | Cc1ccc(N2CCCC(N3CCC4(CC3)OCCO4)C2=O)cc1 (stereo unspecified) | -7.88
77 | CC(=O)c1ccc(NC(=O)NCc2cccc(N(C)C)n2)cc1C | -1.51
78 | CN(C)C(CNC(=O)c1cccc(C(N)=O)c1)c1ccccc1Cl (stereo unspecified) | 3.17
79 | O=C(CCn1cncn1)NCC1CCOC1 (stereo unspecified) | -6.75
80 | Cc1[nH]ncc1CCCNC(=O)Nc1ccc(S(C)(=O)=O)nc1 | 10.3
81 | COCCCN(Cc1ccccn1)S(=O)(=O)c1ccc(OC)cc1 | -14.1
